# Measured values published in US20240209376A1, “Specific Oligonucleotide-Programmed Readthrough of Nonsense Codons” (UNIVERSITY OF MASSACHUSETTS, priority 2021, published 2024).
# “Also recorded” adds a separate entry of the source.
# Tests used:
# [1] = tested on: CAN1-luc expression construct premature stop codon; assay: CAN1-luc expression construct readthrough (rabbit reticulocyte lysate); type: biochemical; details: oligo at +8 position downstream of premature stop codon
# Text: FIG. 4 illustrates one embodiment of a CAN1 arginine permease gene/luciferase expression construct (Can1-1uc). Upper panel: A schematic of the construct showing the relative position of a premature stop codon and a Can1 open reading frame and a luciferase gene with a natural terminal stop codon. Lower panel: A deoxyribonucleic acid sequence of the Can1-1uc construct with a TGA premature stop codon and a deoxyribonucleic acid oligo hybridized to the Can1-1uc construct at the +8 nucleotide position downstream of the premature stop codon.
# FIG. 5 presents exemplary data showing readthrough of a CAN1-1uc expression construct premature stop codon with a DNA oligo hybridized at the +8 nucleotide position downstream of the premature stop codon.
# The DNA antisense oligos contemplated herein were validated using a DNA expression construct comprising a premature stop codon and a luciferase gene. The basic methodology was used a CAN1 gene expression construct encoding an arginine permease amino acid transporter protein. The CAN1 expression construct positions a […] premature stop codon at the terminus of the CAN1 open reading frame subsequently followed by a luciferase open reading frame. See, FIG. 4. The DNA antisense oligo +8(70) having the nucleic acid sequence of 5′-[…]-3′ was then positioned at the +8 nucleic acid position downstream of the first nucleotide of the premature stop codon. […]
# [2] = tested on: CFTR premature stop codon (G542X; UGAC, UGAG) mRNA; assay: 511-565 CFTR nanoluciferase construct readthrough (RRL assay); type: biochemical; details: for readthrough promotion by fluoride-modified oligos: RRL assay
# Text: (§1) FIG. 6 presents one embodiment of a cystic fibrosis gene/nanoluciferase expression construct (511-565 CFTR). Upper panel: A schematic of the construct showing the relative position of a premature stop codon (UGAG or UGAC) within a cystic fibrosis open reading frame (CFTR) and a luciferase gene with a natural terminal stop codon. Lower panel: A deoxyribonucleic acid sequence of the CFTR construct with a TGA premature stop codon and a deoxyribonucleic acid oligo hybridized to the CFTR construct at the +8 nucleotide position downstream of the premature stop codon.
# In one embodiment, the present invention contemplates a modified cystic fibrosis transmembrane conductance regulator (CFTR) deoxyribonucleic acid (DNA) construct. In one embodiment, the modified CFTR DNA construct comprises a CFTR open reading frame comprising a premature TGA stop codon. In one embodiment, the TGA premature stop codon is a G542X mutation. In one embodiment, the modified CFTR DNA construct further comprises a nanoluciferase gene and a natural stop codon. In one embodiment, the modified CFTR mRNA construct molecule is hybridized to a single stranded DNA antisense oligo at the +8 nucleotide position downstream of a TGA premature stop codon. In one embodiment, the DNA antisense oligo is 5′-[…]-3′. See, FIG. 6.
# (§2) A 511-565 CFTR DNA expression vector construct was designed with several different codon configurations: i) a single wild type sense codon (“GGAG”) and a subsequent wild-type stop codon; ii) a premature stop codon “TGAG” comprising a G542X mutation (e.g., a strong stop codon); and iii) a premature stop codon “TGAC” comprising a G542X mutation (a weak stop codon) rendering an artificial readthrough-prone context. […] See, FIG. 7.
# [3] = tested on: CFTR wild type construct without premature stop codon (GGAG); assay: 511-565 CFTR nanoluciferase construct expression, wild type; type: biochemical; details: increasing G418 concentrations
# Text: as §1
# FIG. 8 presents exemplary data showing the effect of the aminoglycoside G418 on 511-565 CFTR construct expression.
# as §2
# [4] = tested on: CFTR mRNA levels (NMD-mediator SMG1); assay: mRNA analysis by qPCR in CFF-16HBEge cell lines; type: cell-based
# Text: The example presents the results of mRNA analysis by quantitative polymerase chain reaction and (qPCR) and protein analysis by Western Blot.
# [5] = cited from earlier work
# [6] = experimental data; cited from earlier work
compound,measurement,setting,value
"5′-GCGCCGGGCCTTTCTTTATGTTTTTGGCGT-3′ (DNA, backbone and methylation of C not given here) [+8(70), DNA antisense oligo at +8 position of CAN1-luc construct]",readthrough of premature stop codon in CAN1-luc construct,[1],increases readthrough of a premature stop codon
CN[C@@H]1[C@@H](O)[C@@H](O[C@H]2[C@H](O)[C@@H](O[C@H]3O[C@H]([C@H](C)O)[C@@H](O)[C@H](O)[C@H]3N)[C@H](N)C[C@@H]2N)OC[C@]1(C)O [G418],"premature stop codon readthrough, G418 alone","[2]; UGAG and UGAC constructs, increasing G418 concentrations",promotes premature stop codon (UGAG and UGAC) readthrough in a concentration-dependent manner; also recorded: increasing expression of premature stop codon constructs
same,readthrough rate at 0.5 μM and 0.1 μM G418 versus 1 μM G418,"[2]; weak (UGAC) and strong (UGAG) premature codon, +8(66) combination experiment (FIG. 9)",significantly higher readthrough rate
same,"wild type sense codon (GGAG) construct expression, G418 alone",[3],inhibits wild type sense codon (GGAG) readthrough in a concentration-dependent manner; also recorded: decreases the expression of wild type construct
CCN(CC)S(=O)(=O)c1cc(Nc2nccc(-c3ccnc(-c4ccc(NC(=O)NC)cc4)c3)n2)ccc1Cl [SMG1i],CFTR WT mRNA,[4],smaller increase
same,mRNA levels of the PTC alleles,[4],restores mRNA levels of the PTC alleles
NC[C@H]1O[C@H](O[C@H]2[C@H](O)[C@@H](O[C@H]3O[C@H](CO)[C@@H](O)[C@H](N)[C@H]3O)[C@H](N)C[C@@H]2N)[C@H](N)C[C@@H]1O [tobramycin],"rise in NAG, once daily arm less than three times daily regimen",[5]; adults and children,33%
same,"elimination rate, once daily versus three times daily group",[5]; once daily group mostly dosed in the evening,lower elimination rate
same,serum creatinine level during the course of treatment,"[5]; paediatric group, single daily dose, compared with a rise with three divided doses",decreased
same,"efficacy, single daily versus multiple daily dosing regimen",[5]; patients with CF,equal efficacy
"TCCACTCAGTGTGATTCCAC^F (2'-fluoro at 20, other sugars and backbone not given here; one 2'-fluoro at 3'-terminal nucleotide) [+8(47) oligo withone 2′-fluoride modification]",readthrough promotion by fluoride-modified oligos,[2],promote readthrough in an RRL assay with improved stability and/or efficiency
U^FCCAC^FTCAG^FTGTG^FATTC^FCAC^F,readthrough promotion by fluoride-modified oligos,[2],promote readthrough in an RRL assay with improved stability and/or efficiency
gentamicin,relative toxicity among aminoglycosides,[6],more toxic than tobramycin and amikacin
